From US11655268B2, “Nucleoside or nucleotide derivatives, and uses thereof” (ST Pharm Co., Ltd., priority 2018, dated 2023)
Read-outs that look alike come from different tables or passages of the source.

How the values were obtained:
MDCK cells = conditions: read-out: Toxicity CC50, day 3, MTT
Influenza virus B/Lee/40 = assay: Cytopathic effect reduction, influenza B Lee in MDCK cells, MTT; type: cell-based; conditions: for EC50: read-out: Anti-Flu activity EC50 FluB Lee; for Selectivity index FluB Lee: CC50/EC50
DENV = assay: Reduction in viral infection, dengue virus in Vero cells, immunofluorescence (4G2 antibody); type: cell-based, Dengue virus New Guinea C (NGC); conditions: 72 h, read-out: EC50 DENV
MERS-CoV = assay: microbe, parasite or virus in culture; type: cell-based, MERS virus (MERS-CoV/KOR/KNIH/002_05_2015); conditions: Middle East respiratory syndrome-related coronavirus, Huh-7, 72 h, read-out: EC50 MERS-CoV
in vitro [1] = conditions: dog
ZIKV = assay: Reduction in viral infection, zika virus in Vero cells, immunofluorescence (4G2 antibody); type: cell-based, Zikavirus (MR766); conditions: 72 h, day 3 after infection
in vitro [2] = conditions: human
[3] = Cytotoxicity (CC50) in Vero cells; conditions: African green monkey
CHIKV = assay: Cytopathic effect reduction, Chikungunya virus in Vero cells, MTT; type: cell-based; conditions: 72 h, read-out: EC50 CHIKV
[4] = tested on: Madin-Darby Canine Kidney (MDCK) cells; conditions: 100 μM for 3 days; cited from earlier work
in vitro [5] = conditions: human; remark: listed apart in the source
hCoV (229E) = assay: microbe, parasite or virus in culture; type: cell-based, Human coronavirus hCoV 229E; conditions: MRC5, 72 h; MRC-5 cells, day 3 after infection; read-out: EC50 hCoV (229E)
FIPV = assay: Cytopathic effect reduction, FIPV in CRFK cells, MTT; type: cell-based, feline infectious peritonitis virus (FIPV); conditions: Alphacoronavirus 1, 72 h; CRFK cells, day 3 after infection; read-out: EC50 FIPV
in vitro [6] = conditions: cat
[7] = CC50 (CHIKV), Vero cells, CHIKV test, MTT
[8] = CC50 (DENV), Vero cells, DENV test

## Nc1ccn([C@@H]2O[C@H](CO)[C@@H](O)[C@H]2F)c(=O)n1 [2′-FdC, reference compound]
MDCK cells
  CC50: > 100 µM
Influenza virus B/Lee/40
  EC50: 5.2 µM

## O=C(Nc1ccn(C2O[C@H](CO)[C@@H](O)[C@H]2F)c(=O)n1)c1ccncn1 (stereo in doubt) [Example 36, N-(1-((2S,3R,4R,5R)-3-fluoro-4-hydroxy-5-(hydroxymethyl)tetrahydrofuran-2-yl)-2-oxo-1,2-dihydropyrimidin-4-yl)pyrimidine-4-carboxamide]
DENV
  EC50: > 100 µM
MERS-CoV
  EC50: > 100 µM
In vitro [1]
  CC50 at 3 days: > 100 µM
ZIKV
  EC50: > 100 µM
In vitro [2]
  CC50 at 3 days: > 100 µM
[3]; [7]
  CC50 at 3 days: > 100 µM
[3]; [8]
  CC50 at 3 days: > 100 µM
[3]; CC50, Vero cells, ZIKV test
  CC50 at 3 days: > 100 µM
CHIKV
  EC50: 57.7 µM
Influenza virus B/Lee/40
  Selectivity index FluB Lee: >8.8
Influenza virus B/Lee/40; MDCK, 72 h
  EC50: 11.4 µM

## O=C(Nc1ccn(C2O[C@H](CO)[C@@H](O)[C@H]2F)c(=O)n1)c1cccnn1 (stereo in doubt) [Example 33, N-(1-((2S,3R,4R,5R)-3-fluoro-4-hydroxy-5-(hydroxymethyl)tetrahydrofuran-2-yl)-2-oxo-1,2-dihydropyrimidin-4-yl)pyridazine-3-carboxamide]
DENV
  EC50: > 100 µM
MERS-CoV
  EC50: > 100 µM
In vitro [1]
  CC50 at 3 days: > 100 µM
ZIKV
  EC50: > 100 µM
In vitro [2]
  CC50 at 3 days: > 100 µM
[3]; [7]
  CC50 at 3 days: > 100 µM
[3]; [8]
  CC50 at 3 days: > 100 µM
[3]; CC50, Vero cells, ZIKV test
  CC50 at 3 days: > 100 µM
CHIKV
  EC50: 86.4 µM
Influenza virus B/Lee/40
  Selectivity index FluB Lee: >12.8
Influenza virus B/Lee/40; MDCK, 72 h
  EC50: 7.8 µM

## O=C(Nc1ccn(C2O[C@H](CO)[C@@H](O)[C@H]2F)c(=O)n1)c1cccc(-c2ccccc2)n1 (stereo in doubt) [Example 27, N-(1-((2S,3R,4R,5R)-3-fluoro-4-hydroxy-5-(hydroxymethyl)tetrahydrofuran-2-yl)-2-oxo-1,2-dihydropyrimidin-4-yl)-6-phenylpicolinamide]
DENV
  EC50: 13.7 µM
MERS-CoV
  EC50: 20.9 µM
In vitro [1]
  CC50 at 3 days: > 100 µM
ZIKV
  EC50: > 100 µM
In vitro [2]
  CC50 at 3 days: 56.6 µM
[3]; [7]
  CC50 at 3 days: > 100 µM
[3]; [8]
  CC50 at 3 days: 64.4 µM
[3]; CC50, Vero cells, ZIKV test
  CC50 at 3 days: > 100 µM
CHIKV
  EC50: > 100 µM
Influenza virus B/Lee/40
  Selectivity index FluB Lee: >6.4
Influenza virus B/Lee/40; MDCK, 72 h
  EC50: 15.6 µM

## Cc1nccc(C(=O)Nc2ccn(C3O[C@H](CO)[C@@H](O)[C@H]3F)c(=O)n2)n1 (stereo in doubt) [Example 29, N-(1-((2S,3R,4R,5R)-3-fluoro-4-hydroxy-5-(hydroxymethyl)tetrahydrofuran-2-yl)-2-oxo-1,2-dihydropyrimidin-4-yl)-2-methylpyrimidin-4-carboxamide]
DENV
  EC50: > 100 µM
MERS-CoV
  EC50: > 100 µM
In vitro [1]
  CC50 at 3 days: > 100 µM
ZIKV
  EC50: > 100 µM
In vitro [2]
  CC50 at 3 days: > 100 µM
[3]; [7]
  CC50 at 3 days: > 100 µM
[3]; [8]
  CC50 at 3 days: > 100 µM
[3]; CC50, Vero cells, ZIKV test
  CC50 at 3 days: > 100 µM
CHIKV
  EC50: 24 µM
Influenza virus B/Lee/40
  Selectivity index FluB Lee: >17.9
Influenza virus B/Lee/40; MDCK, 72 h
  EC50: 5.6 µM

## Nc1ccn([C@@H]2O[C@H](CO)[C@@H](O)C2(F)F)c(=O)n1 [Gemcitabine, reference compound]
[4]
  cell death: about 50%
MERS-CoV
  EC50: 1.1 µM
In vitro [1]
  CC50: 241 µM
In vitro [5]
  CC50: > 100 µM
In vitro [2]
  CC50 at 3 days: > 100 µM
hCoV (229E)
  EC50: 0.44 µM
Influenza virus B/Lee/40
  Selectivity index FluB Lee: 185.2
Influenza virus B/Lee/40; MDCK, 72 h
  EC50: 1.3 µM
FIPV
  EC50: 21 µM
In vitro [6]
  CC50: 92 µM
